Test results as given in US5827896A, “Pinitol and derivatives thereof for the treatment of metabolic disorders” (priority 1996, dated 1998).
Several values for one entry are separate records, joined by “and”; a condition that tells them apart may be missing. Equal entries are not always repeated.

How the values were obtained:
[1] = acid hydrolysis of pinitol to D-chiro-inositol in 6N HCl; assay type: physicochemical; conditions: 24 hr at 110° in 6N HCl
Experimental: The highly standardized components of Purina Rodent Chow 5001 were analyzed by gas chromatography-mass spectrometry after hydrolysis in 6N HCI at 110° for 24 hr. to convert the pinitol to D-chiro-inositol and the results are presented in Table I below:
In contrast to other ether linkages it is not necessary to use concentrated hydrogen iodide to convert pinitol to D-chiro-inositol as detailed in U.S. Pat. No. 5,091,596.

clinical = conditions: in vivo
Experimental: (§1) Five non-insulin-dependent diabetic subjects were studied on two occasions one week apart. For three days the subjects received pinitol 4.15 mg/kg/day orally in a drink once daily for 3 days. The preparation also contained 0.85 mg/kg/day D-chiro-inositol in other forms. The total inositol content by weight (including pinitol) was 22.5%. On the fourth day they took no morning dose of oral hypoglycemic agents and reported to the Clinical Research Center. Baseline blood samples were taken at -90 and -60 minutes, and at -60 minutes a dose of pinitol identical to that taken during the previous 3 days was given orally. The material contained less than 5 calories. At zero time 75 g glucose was given to begin a glucose tolerance test and blood samples were taken half-hourly for 3 hours. In random order the subjects received either myo-inositol (5 mg/kg/day) or soy pinitol (total inositol content 5 mg/kg/day). […] Plasma inositol levels were measured by gas chromatography/mass spectrometry and insulin levels were measured by RIA.

plasma free fatty acids = assay: fasting plasma free fatty acids in NIDDM patients, placebo-controlled crossover (Example 5); assay type: in vivo, human; conditions: 5 days
Experimental: (§2) 10 non-insulin-dependent diabetes patients maintained a pinitol and D-chiro-inositol-deficient diet (no legumes, or citrus fruits) throughout the study. […] The following table summarizes the characteristics of the patients.
(§3) Each subject received both placebo and soy-derived pinitol in separate tests. After an initial 5-day washout period the subjects received 5 days of treatment with either pinitol 5 mg/kg BID (total dose 10 mg/kg/day) or placebo without inositols. The material was given orally in 60 ml. calorie-free KOOL-AID drink.
(§4) Twelve hours after the last dose, two fasting plasma samples were drawn from each subject 15 minutes apart. Plasma free fatty acid levels were measured. A dose of pinitol was then given and a 3-hour glucose tolerance test was performed.
(§5) After a second 5-day washout period and another 5 days of pinitol or placebo feeding the testing was repeated. The order of treatment (pinitol or lacebo) was randomized and study investigatyors and those conducting the analyses were blinded to the order of treatment given.

plasma insulin [2] = assay: plasma insulin during oral glucose tolerance test (RIA) in non-insulin-dependent Type II diabetics (Example 3); assay type: in vivo, human
Experimental: as §1

[3] = fasting plasma pinitol and chiro-inositol levels in NIDDM patients (Example 5); assay type: in vivo, human
Experimental: as §2, §3, §4, §5

plasma glucose [4] = assay: plasma glucose during oral glucose tolerance test in non-insulin-dependent Type II diabetics (Example 3); assay type: in vivo, human
Source text: The material contained less than 5 calories.

plasma glucose [5] = conditions: stated as basis for use as control; cited from earlier work
plasma insulin [6] = conditions: stated as basis for use as control; cited from earlier work
[7] = before glucose, during pinitol treatment
[8] = compared to the pinitol-deficient diet

Structure (SMILES) | conversion to D-chiro-inositol on acid hydrolysis [1] | plasma D-chiro-inositol reached (clinical; human, 240 min) [µM] | Cmax at 3 h (clinical; human, po, 4.15 mg/kg/day) [nM] | time of peak plasma pinitol after oral administration (clinical; po) | Fasting plasma free fatty acids (plasma free fatty acids; pinitol 5 mg/kg BID (10 mg/kg/day) orally, twelve hours after last dose, Mean ± SD, placebo 648 ± 244, P 0.05) [µM] | reduction in mean fasting plasma free fatty acids (plasma free fatty acids; pinitol 5 mg/kg BID, vs placebo, p=0.05 by paired t-test) [%] | Insulin Area, Pinitol (plasma insulin [2]; 75 g glucose tolerance test, 3 hours, soy pinitol (total inositol 5 mg/kg/day orally), one value per subject (1-5)) | baseline insulin levels (plasma insulin [2]; [7]) | reduction of insulin area during the glucose tolerance test (plasma insulin [2]; pinitol vs myo-inositol, five subjects, p=0.046) [%] | Insulin Area, Percent Change (Reduction) (plasma insulin [2]; pinitol vs myo-inositol, one value per subject (1-5)) | plasma chiro-inositol on pinitol feeding [3, 8] | plasma pinitol on pinitol feeding [3, 8] | concentration at 12 h ([3]; human, plasma, po, pinitol 5 mg/kg BID orally, 5 days, twelve hours after last dose, Mean ± SD, placebo 0.014 ± 0.012, P <0.0001) [nM] | baseline glucose levels (plasma glucose [4]; [7]) | reduction in plasma glucose area (mg/dl×minutes) during the glucose tolerance test (plasma glucose [4]; pinitol vs myo-inositol, five subjects, p=0.11) [%] | effect on plasma glucose (plasma glucose [5]) | Insulin Area, myo-Inositol (plasma insulin [2]; 75 g glucose tolerance test, 3 hours, myo-inositol 5 mg/kg/day (control), one value per subject (1-5)) | effect on plasma insulin (plasma insulin [6])
CO[C@H]1[C@H](O)[C@@H](O)[C@@H](O)[C@H](O)[C@@H]1O [Pinitol, 3-O-methyl-D-chiro-inositol] | quantitatively converted to D-chiro-inositol | 1.7 | 5400 | three | 569 ± 276 | 12.2 | 8844 μU/ml × minutes and 4032 μU/ml × minutes and 1518 μU/ml × minutes and 1566 μU/ml × minutes and 1197 μU/ml × minutes | unchanged | 25.2±8.9 | 51.1% and 12.3% and 32.6% and 30.6% and 0.5% | increased substantially | increased substantially | 488 ± 290 | unchanged | 18.8±9.1 |  |  | 
O[C@H]1[C@H](O)[C@@H](O)[C@H](O)[C@@H](O)[C@H]1O [myo-Inositol, myo-inositol, reference compound] |  |  |  |  |  |  |  |  |  |  |  |  |  |  |  | no definite effect | 18066 μU/ml × minutes and 4599 μU/ml × minutes and 2253 μU/ml × minutes and 2256 μU/ml × minutes and 1191 μU/ml × minutes | no definite effect
